The test system of one experiment is OCI-Ly3 cells. In words: Cell proliferation, trypan blue cell count. Format: cell-based, human. The note with it: OCI-Ly3, single 1 μM dose, 12 days, result in words. The source says:
Cell proliferation, viability, and apoptosis assays. Starting with ~20,000 DLBCL cells in 5% FBS
at day 0, cell number was counted using the trypan blue dye exclusion method with Vi-CELL cell

The test system of experiment [1] is ERK1/2 phosphorylation in Jurkat T cells. The experiment in a line: ERK phosphorylation after CD3/CD28 stimulation (MALT1-independent control).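 For pERK 1/2 (normalized): Phosphorylated ERK1/2 relative to total ERK1/2 protein.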 Format: cell-based, human. To be noted: for pERK 1/2 (normalized): Jurkat, 1 μM; for ERK phosphorylation: result in words. As to the method: Western blot analysis of RelB and N4BP1 cleavage was used to test the effect of small molecules on MALT1 protease activity. To this end, 3 million Jurkat T cells were pretreated with compounds for 24 hours in serum-free media, and then 5 μM MG-132 was added for 1 hour before stimulation with CD3/CD28 (Stemcell Technologies, catalog 10971), and lysed in RIPA buffer (Millipore, catalog 20-188) with protease and phosphatase inhibitor cocktail (Pierce, catalog 78446). IKKα/β phosphorylation and IκBα phosphorylation were used as measures of MALT1 scaffolding activity, while ERK1/2 phosphorylation was used as a control. […] For experiments evaluating RelB cleavage and phosphorylation of IκBα in TMD8 cells, cells were treated with compounds for 24 hours in media containing 5% FBS. For RelB Western blot analysis, 5 μM MG-132 (Cell Signaling Technology, catalog 2194s) was added 4 hours before lysis in RIPA lysis buffer with protease/phosphatase inhibitors.

In another experiment the test system is OCI-Ly1 cells. The experiment in a line: Apoptosis, annexin V/SYTOX Blue flow cytometry. It counts as cell-based, human. As to the method: Cell proliferation, viability, and apoptosis assays. […]
Annexin V Alexa 488
(ThermoFisher Scientific, Cat# A13201) and SYTOX Blue Dead Cell (ThermoFisher Scientific, Cat# S34857) stains were used to detect apoptosis in DLBCL cells after treatment with 1 µM compounds for 8 days in TMD8 and OCI-Ly1 and for 5 days in OCI-Ly3 cells, then analyzed with flow cytometry. The percentages of cells in early and late apoptosis were combined for quantification. For CellTrace Violet, CellTiter-glo, and Annexin V apoptosis assays, cell were cultured in media with 50% of the usual serum. […]

For experiment [2], the target named is T1, binding of Id1 to immobilized MyoD (Homo sapiens, UniProt P41134).
T1 construct: purchased Proteintech Ag13359 (GST-ID1); Ag13186 (His-MyoD1)
T1 sequence (P41134 1-155): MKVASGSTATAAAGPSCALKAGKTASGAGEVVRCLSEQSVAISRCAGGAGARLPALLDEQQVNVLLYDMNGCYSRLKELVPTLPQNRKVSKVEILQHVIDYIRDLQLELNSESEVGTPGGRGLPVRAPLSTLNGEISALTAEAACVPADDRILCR
The experiment in a line: MyoD1/ID1 ELISA (specificity control). To be noted: for inhibition of binding of Id1 to immobilized MyoD: result in words. The procedure:
ELISA-based protein-protein interaction assay. On a high-binding 96-well ELISA microplate (Greiner Cat# 655061), 100 ng of His-tagged recombinant human full-length BCL10 protein (Novus Cat# NBP1-99064) or in 100 µl PBS was allowed to adhere overnight at 4°C. The plate was blocked with 5% BSA in PBS for 1 hour at room temperature. After washing twice with PBS-T, a mixture of 100 ng of GST-tagged recombinant human full-length MALT1 protein (Novus Biologicals Cat# H00010892-P01) and compound that was preincubated for 1 hour in 100 μl PBS was added to the plate for 1 hour at room temperature. After washing three times with PBS-T, anti-MALT1 antibody (Cell Signaling Technology, Cat# 2494) in 5% BSA in PBS was added at 1:1000 dilution for 1 hour at room temperature. After washing three times with PBS-T, HRP-conjugated secondary antibody in 5% BSA in PBS was added at 1:5000 dilution for 1 hour at room temperature. After washing three times with PBS-T, 100 µl of 3,3’,5,5’-tetramethylbenzidine (TMB) substrate solution (Thermo Scientific, Cat# 34028) was added for up to 15 minutes, and 100 µl of 2 M sulfuric acid was added to stop the reaction. The plate was read at 450 nm using a spectrophotometer (Molecular Devices SpectraMax i3). The MyoD1/ID ELISA was performed as above except that 100 ng of recombinant human His-tagged MyoD1 (Proteintech, Cat# Ag13186) was plated overnight at 4°C prior to the addition of 100 ng of recombinant human GST-ID1 (Proteintech, Cat# Ag13359) preincubated to with compounds. The anti-GST antibody (clone 26H1, Cell signaling Technology, Cat #2624) was used to detect bound ID1. […]

“And” between values parts separate entries of the source, which are not always exact repeats. Identical values can stand only once.

`COc1ccc(CNS(=O)(=O)c2ccc(Cc3ccc(S(=O)(=O)NCc4ccc(OC)cc4)cc3)cc2)cc1` [M1i-124d1]: the “expansion of culture (proliferation)” value in the experiment with OCI-Ly3 cells is given as “significant reduction in the expansion”. In addition, the “pERK 1/2 (normalized)” value was 1.155 and 0.776 and 1.27 and 0.7498 and 0.998 in experiment [1] (CD3/CD28 5 min); 1.2674 and 0.9152 and 1.197 and 0.7135 and 0.9691 in experiment [1] (CD3/CD28 10 min); 1.05 and 0.8514 and 1.066 and 0.6774 and 0.9099 in experiment [1] (CD3/CD28 15 min); 0.8015 and 0.6878 and 0.9541 and 0.7317 and 0.9634 in experiment [1] (CD3/CD28 20 min). The ERK phosphorylation entry in experiment [1] was “unaffected”. In addition, the “Percent Apoptotic cells” value in the experiment on OCI-Ly1 cells (OCI-Ly1) is 9.94% and 10.39% and 9.5% and 11.36% and 12.09% and 11.72%. For the same molecule, the “MyoD-Id Interaction (% of control)” value in experiment [2] (0.0975 µM) is 78.8369 % of control and 104.379 % of control and 92.0174 % of control; in experiment [2] (0.39 µM) it was 96.3277 % of control and 95.1904 % of control; in experiment [2] (1.56 µM), 85.8349 % of control and 109.633 % of control and 85.4375 % of control; in experiment [2] (6.25 µM), 108.475 % of control and 92.4516 % of control; in experiment [2] (12.5 µM) it was 119.401 % of control and 82.5424 % of control and 93.487 % of control; in experiment [2] (25 µM), 109.677 % of control and 97.6271 % of control and 64.0281 % of control. For the same molecule, the “MyoD-Id Interaction (% of control)” value in experiment [2] (50 µM) was 120.512 % of control and 93.4463 % of control and 89.2118 % of control; in experiment [2] (100 µM) it was 139.841 % of control and 108.927 % of control and 105.812 % of control. Also, the remaining activity at 0.39 µM in experiment [2] (0.39 µM, read-out: MyoD-Id Interaction (% of control)) turned out to be 80.9%. Besides, the remaining activity at 6.25 µM in experiment [2] (6.25 µM, read-out: MyoD-Id Interaction (% of control)) was determined as 97.9%. Further, the “inhibition of binding of Id1 to immobilized MyoD” value in experiment [2] is “neither M1i-124 nor M1i-124d1 could inhibit”.
Take `O=S(=O)(NCc1ccc2c(c1)OCO2)c1ccc(Cc2ccc(S(=O)(=O)NCc3ccc4c(c3)OCO4)cc2)cc1` [M1i-124]: in the experiment with OCI-Ly3 cells, the “expansion of culture (proliferation)” value is given as “significant reduction in the expansion”. Moreover, the ERK phosphorylation entry in experiment [1] was “unaffected”. For the same molecule, in the experiment on OCI-Ly1 cells (Ly1, individual replicates), the “Annexin (% positivity)” value is 14.6% and 13.45% and 17.85%. Also, the “MyoD-Id Interaction (% of control)” value in experiment [2] (0.0975 µM) was 75 % of control and 118.107 % of control and 86.1723 % of control; in experiment [2] (0.39 µM), 70.9459 % of control and 110.989 % of control and 93.988 % of control; in experiment [2] (1.56 µM), 102.244 % of control and 139.153 % of control and 113.828 % of control; in experiment [2] (6.25 µM), 126.689 % of control and 146.808 % of control and 132.264 % of control; in experiment [2] (12.5 µM) it was 149.548 % of control and 131.062 % of control; in experiment [2] (25 µM), 150.772 % of control and 122.599 % of control and 116.032 % of control. Moreover, the “MyoD-Id Interaction (% of control)” value in experiment [2] (50 µM) is 152.034 % of control and 140.013 % of control; in experiment [2] (100 µM), 153.861 % of control and 138.475 % of control and 133.2 % of control. Further, the remaining activity at 12.5 µM in experiment [2] (12.5 µM, read-out: MyoD-Id Interaction (% of control)) was found to be 145%. Besides, the remaining activity at 50 µM in experiment [2] (50 µM, read-out: MyoD-Id Interaction (% of control)) amounted to 158%. Further, in experiment [2], the “inhibition of binding of Id1 to immobilized MyoD” value is on record as “neither M1i-124 nor M1i-124d1 could inhibit”.

These data come from paper PMC11996864, “A small-molecule inhibitor of BCL10-MALT1 interaction abrogates progression of diffuse large B cell lymphoma” (The Journal of Clinical Investigation, 2025).
